Tests used:
Type in all cases: functional
Staphylococcus aureus [1] = experiment: Antimicrobial activity against Staphylococcus aureus ATCC 6538 on gold coated surface assessed as bactericidal efficiency after 4 hrs
Staphylococcus aureus [2] = experiment: Antimicrobial activity against Staphylococcus aureus ATCC 6538 on gold coated surface assessed as log reduction of colony forming units after 24 hrs
Staphylococcus aureus [3] = experiment: Antimicrobial activity against Staphylococcus aureus ATCC 6538 on gold coated surface assessed as log reduction of colony forming units after 4 hrs

| SMILES | Activity (Staphylococcus aureus [1]) | Activity (Staphylococcus aureus [2]) | Activity (Staphylococcus aureus [3]) |
| --- | --- | --- | --- |
| CCCCCCCCCC[N+](C)(C)CCCNC(=O)CCCCCCCCCCS.[Cl-] | 67 | 0 | 0.39 |
| C[N+](C)(C)CCCCCCCCCCCS.[Cl-] | 30 | 0 | 0.14 |
| CCCCCCCCCC[N+](C)(C)CCCCCCCCCCCS.[Cl-] | 51 | 0 | 0.31 |
| CCCCCCCCCCCCCC[N+](C)(C)CCCNC(=O)CCCCCCCCCCS.[Cl-] | 30 | 0 | 0.14 |
| C[N+](C)(CCCNC(=O)CCCCCCCCCCS)Cc1ccccc1.[Cl-] | 0 | 0 | 0 |
| CCCCCCCCCCCC[N+](C)(C)CCCCCCCCCCCS.[Cl-] | 51 | 0 | 0.31 |
| CCCCCCCCCCCCCC[N+](C)(C)CCCCCCCCCCCS.[Cl-] | 0 | 0 | 0 |
| C[N+](C)(C)CCCNC(=O)CCCCCCCCCCS.[Cl-] | 30 | 0 | 0.14 |
| CCCCCCCCCCCC[N+](C)(C)CCCNC(=O)CCCCCCCCCCS.[Cl-] | 51 | 0 | 0.31 |
| C[N+](C)(CCCCCCCCCCCS)Cc1ccccc1.[Cl-] | 30 | 0 | 0.14 |

Source: ChEMBL document CHEMBL1153778, “Contact-active microbicidal gold surfaces using immobilization of quaternary ammonium thiol derivatives” (2009)
